Values quoted from earlier work in patent US8507276B2, “Tissue culture media used as a component of cosmetics” (La Prairie Group AG, priority 2003, dated 2013).
Where two headings read alike, the source gives them in different places.

Polarity (nonpolar lipids) | Polarity (medium-polar lipids) | Compound | other results
 | 28.6 mN/m | Cetearyl Isononanoate [Cetiol SN] | 
40.3 mN/m |  | Decyl Olivate [Lipodermanol OL] | 
30.0 mN/m |  | Octyl Cocoate [Estol 1540 EHC] | 

More lines, now with the values behind:

Compound | Polarity (nonpolar lipids) | Polarity (medium-polar lipids) | other results
CCCCCCCCOC(=O)OCCCCCCCC [Cetiol CC, Dicarpylyl Carbonate] | 31.7 mN/m |  | 
C12-13 Alkyl Lactate [Cosmacol ELI] |  |  | Polarity (polar lipids): 8.8 mN/m
C12-15 Alkyl Benzoate [Finsolv TN] |  | 21.8 mN/m | 
Caprylic/Capric Triglyceride [Miglyol 812] |  | 21.3 mN/m | 
Propylene Glycol Dicaprylate/Dicaprate [Miglyol 840] |  |  | Polarity (polar lipids): 18.7 mN/m
